Assay results: patent US11155560B2, “Substituted pyrazolo[1,5-a]pyrimidines for modulating CDK9 activity” (Kronos Bio, Inc., priority 2018, dated 2021)
Read-outs that look alike come from different tables or passages of the source.

Target: CDK9/cyclin T1 (Homo sapiens, UniProt P50750)
Experiment: CDK9/cyclin T1 inhibition, radiometric assay
Format: biochemical
Settings: read-out: CDK9/cyclin T1 Potency Grade
Experimental: Exemplary compounds of the invention (1-34) were tested for inhibition of CDK9/cyclin T1. […] Reactions were carried out at 10 μM ATP. Data was normalized to positive and negative controls and curve fits were executed with GraphPad software and were performed where the enzyme activities at the highest concentration of compounds were less than 65%.

CDK9/cyclin T1, sequence (P50750 whole entry): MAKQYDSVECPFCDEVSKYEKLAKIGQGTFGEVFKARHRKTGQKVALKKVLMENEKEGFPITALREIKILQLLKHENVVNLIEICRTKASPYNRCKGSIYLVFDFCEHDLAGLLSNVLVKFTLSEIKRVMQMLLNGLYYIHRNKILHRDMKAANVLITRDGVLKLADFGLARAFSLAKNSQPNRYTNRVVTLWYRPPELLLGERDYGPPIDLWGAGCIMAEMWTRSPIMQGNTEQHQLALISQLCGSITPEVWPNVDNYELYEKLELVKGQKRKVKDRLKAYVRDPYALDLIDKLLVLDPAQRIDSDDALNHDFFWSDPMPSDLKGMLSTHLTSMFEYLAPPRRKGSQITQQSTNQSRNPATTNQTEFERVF
CDK9/cyclin T1, sequence (O60563 whole entry partner): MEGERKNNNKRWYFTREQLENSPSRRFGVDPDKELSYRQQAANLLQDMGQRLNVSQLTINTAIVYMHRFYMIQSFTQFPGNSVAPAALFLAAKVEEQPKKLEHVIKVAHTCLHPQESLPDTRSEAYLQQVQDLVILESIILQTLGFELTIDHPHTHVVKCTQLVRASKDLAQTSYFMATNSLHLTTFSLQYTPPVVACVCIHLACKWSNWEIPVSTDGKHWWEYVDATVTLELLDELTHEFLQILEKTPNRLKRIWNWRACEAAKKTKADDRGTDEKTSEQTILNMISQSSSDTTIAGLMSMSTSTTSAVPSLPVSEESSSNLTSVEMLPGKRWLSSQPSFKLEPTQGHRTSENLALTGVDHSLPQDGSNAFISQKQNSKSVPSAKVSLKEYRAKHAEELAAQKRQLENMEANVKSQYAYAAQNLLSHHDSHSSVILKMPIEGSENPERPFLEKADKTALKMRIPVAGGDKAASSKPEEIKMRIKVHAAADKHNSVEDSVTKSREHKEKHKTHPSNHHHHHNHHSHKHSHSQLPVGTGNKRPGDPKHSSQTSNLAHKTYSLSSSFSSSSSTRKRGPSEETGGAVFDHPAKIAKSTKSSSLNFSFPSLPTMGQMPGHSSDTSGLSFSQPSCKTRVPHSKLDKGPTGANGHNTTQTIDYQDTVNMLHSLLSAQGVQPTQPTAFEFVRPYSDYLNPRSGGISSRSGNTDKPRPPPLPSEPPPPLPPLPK

`Cc1cc(NC2CCCC2)n2nccc2n1` [Compound 1, N-cyclopentyl-5-methyl-pyrazolo[1,5-a]pyrimidin-7-amine] was tested, and the IC50 was > 1 µM.

`CC(C)c1cc(NC2CCCC2)n2nccc2n1` [Compound 2, N-cyclopentyl-5-isopropyl-pyrazolo[1,5-a]pyrimidin-7-amine] showed an IC50 of 0.001 to 0.5 µM.

In the case of `CCC(C)c1cc(NC2CCCC2)n2nccc2n1` (centres unmarked) [Compound 3, N-cyclopentyl-5-sec-butyl-pyrazolo[1,5-a]pyrimidin-7-amine], the IC50 is reported as 0.001 to 0.5 µM.

`Cc1cc(N[C@H]2CC[C@H](N)CC2)n2nccc2n1` [Compound 4, [4-[(5-methylpyrazolo[1,5-a]pyrimidin-4-ium-7-yl)amino]cyclohexyl]ammonium dichloride] was tested, and the IC50 was 0.501 to 1 µM.

In the case of `c1cc2nc(C3CCCC3)cc(NC3CCCC3)n2n1` [Compound 5, N,5-dicyclopentylpyrazolo[1,5-a]pyrimidin-7-amine], the IC50 is reported as 0.001 to 0.5 µM.

Work on `CCC(C)c1cc(N[C@H]2CC[C@H](N)CC2)n2nccc2n1` (some centres unmarked) [Compound 7, [4-[(5-sec-butylpyrazolo[1,5-a]pyrimidin-4-ium-7-yl)amino]cyclohexyl]ammonium dichloride] yielded an IC50 of 0.001 to 0.5 µM.

Work on `N[C@H]1CC[C@H](Nc2cc(C3CCCC3)nc3ccnn23)CC1` [Compound 8, [4-[(5-cyclopentylpyrazolo[1,5-a]pyrimidin-4-ium-7-yl)amino]cyclohexyl]ammonium dichloride] yielded an IC50 of 0.001 to 0.5 µM.

For `N[C@H]1CC[C@H](Nc2cc(C3CCCC3)nc3ccnn23)C1` [Compound 9, [(1S,3S)-3-[(5-cyclopentylpyrazolo[1,5-a]pyrimidin-4-ium-7-yl)amino]cyclopentyl]ammonium dichloride], the IC50 was 0.001 to 0.5 µM.

In the case of `Cc1cc(N[C@@H]2CC[C@H](N)C2)n2nccc2n1` [Compound 10, [(1S,3R)-3-[(5-methylpyrazolo[1,5-a]pyrimidin-4-ium-7-yl)amino]cyclopentyl]ammonium dichloride], the IC50 is reported as > 1 µM.

`Cc1cc(N[C@H]2C[C@H](N)C2)n2nccc2n1` [Compound 11, [3-[(5-methylpyrazolo[1,5-a]pyrimidin-4-ium-7-yl)amino]cyclobutyl]ammonium dichloride] showed an IC50 of 0.501 to 1 µM.

`Cc1cc(N[C@H]2CC[C@@H](N)C2)n2nccc2n1` [Compound 12, [(1R,3S)-3-[(5-methylpyrazolo[1,5-a]pyrimidin-4-ium-7-yl)amino]cyclopentyl]ammonium dichloride] was tested, and the IC50 was 0.501 to 1 µM.

`N[C@H]1CC[C@@H](Nc2cc(C3CCCC3)nc3ccnn23)C1` [Compound 15, (1 S,3R)—N3-(5-cyclopentylpyrazolo[1,5-a]pyrimidin-7-yl)cyclopentane-1,3-diamine] gave an IC50 of 0.001 to 0.5 µM.

`CCC(C)c1cc(N[C@H]2C[C@H](N)C2)n2nccc2n1` (some centres unmarked) [Compound 19, N1-(5-sec-butylpyrazolo[1,5-a]pyrimidin-7-yl)cyclobutane-1,3-diamine] was tested, and the IC50 was 0.001 to 0.5 µM.

With `N[C@H]1C[C@H](Nc2cc(C3CCCC3)nc3ccnn23)C1` [Compound 20, N1-(5-cyclopentylpyrazolo[1,5-a]pyrimidin-7-yl)cyclobutane-1,3-diamine] the IC50 was 0.001 to 0.5 µM.

Compound `N[C@@H]1CC[C@H](Nc2cc(C3CCCC3)nc3ccnn23)C1` [Compound 23, (1R,3S)—N3-(5-cyclopentylpyrazolo[1,5-a]pyrimidin-7-yl)cyclopentane-1,3-diamine] has an IC50 of 0.001 to 0.5 µM.

`Cc1cc(N[C@H]2CC[C@H](N)C2)n2nccc2n1` [Compound 24, (1S,3S)—N3-(5-methylpyrazolo[1,5-a]pyrimidin-7-yl)cyclopentane-1,3-diamine] gave an IC50 of 0.501 to 1 µM.

`CCc1cc(N[C@@H]2CC[C@@H](N)C2)n2nccc2n1` [Compound 25, (1R,3R)—N3-(5-ethylpyrazolo[1,5-a]pyrimidin-7-yl)cyclopentane-1,3-diamine] was tested, and the IC50 was 0.501 to 1 µM.

With `CCc1cc(N[C@H]2CC[C@H](N)C2)n2nccc2n1` [Compound 28, (1S,3S)-N3-(5-ethylpyrazolo[1,5-a]pyrimidin-7-yl)cyclopentane-1,3-diamine] the IC50 was 0.001 to 0.5 µM.

In the case of `CC(C)c1cc(NC2CCCCC2)n2nccc2n1` [Compound 29, N-cyclohexyl-5-isopropyl-pyrazolo[1,5-a]pyrimidin-7-amine], the IC50 is reported as 0.001 to 0.5 µM.

`CC(C)c1cc(N[C@@H]2CCOC2)n2nccc2n1` [Compound 30, 5-isopropyl-N-[(3R)-tetrahydrofuran-3-yl]pyrazolo[1,5-a]pyrimidin-7-amine] was tested, and the IC50 was > 1 µM.

Compound `N[C@@H]1CC[C@@H](Nc2cc(C3CC3)nc3ccnn23)C1` [Compound 32, [(1R,3R)-3-[(5-cycloproylpyrazolo[1,5-a]pyrimidin-7-yl)amino]cyclopentyl]ammonium; 2,2,2-trifluoroacetate] has an IC50 (radiometric assay, reaction time 60 minutes, 10 μM ATP, 10-dose IC50, compounds 1-34 and control Staurosporine) of 0.001 to 0.5 µM.

For `CC(=O)Nc1cc(N[C@@H]2CC[C@@H](N)C2)n2ncc(Cl)c2n1` [Compound 33, [(1R,3R)-3-[(5-acetamido-3-chloro-pyrazolo[1,5-a]pyrimidin-7-yl)amino]cyclopentyl]ammonium; 2,2,2-trifluoroacetate], the IC50 was 0.001 to 0.5 µM.

For `CC(=O)Nc1cc(N[C@@H]2CC[C@@H](N)C2)n2nccc2n1` [Compound 34, [(1R,3R)-3-[(5-acetamidopyrazolo[1,5-a]pyrimidin-7-yl)amino]cyclopentyl]ammonium; 2,2,2-trifluoroacetate], the IC50 was > 1 µM.
